Read-outs that look alike come from different tables or passages of the source.

Series [1] concerns HSV-1. Description: activity selectivity assay, HSV-1 infected Vero cells. It is filed as cell-based. The procedure: (§1) HSV (HSV-1 Walki, HSV-1F, HSV-2 MS, HSV clinical isolates and HSV resistant strains) was cultivated on Vero cells (ATCC CCL-81) under the following conditions: The cells were grown in M199 medium (5% foetal calf serum, 2 mM glutamine, 100 IU/mL penicillin, 100 μg/mL streptomycin) in cell culture bottles at 37° C. and 5% CO2. The cells were splitted twice per week (1:4). For the infection, the medium was removed, the cells were washed with Hank's solution, detached using 0.05% trypsin, 0.02% EDTA and incubacted at a density of 4×10^5 cells/mL under the above-mentioned conditions for 24 h. The medium was removed and the virus solution was added at an m.o.i of <0.05 in a volume of 2 mL per 175 cm^2 surface. The infected cells were incubated at 37° C., 5% CO2 for 1 h and then the medium was made up to a volume of 50 mL per 175 cm^2 bottle. […] The virus was released by freezing (−80° C.) and thwawing (37° C.) the infected cultures twice. Cell debris was removed by centrifugation (300 g, 10 min, 4° C.) and the supernatant was frozen in aliquots at −80° C.
(§2) The virus titre was determined using a plaque assay. To this end, Vero cells were seeded in 24-well plates at a density of 4×10^5 cells per well and, after 24 h of incubation (37° C., 5% CO2) infected with 100 μL of inoculum (dilutions (10^−2 to 10^−12) of the virus stock). 1 h after the infection, the medium was removed and the cells were covered with 1 mL of overlay medium (0.5% methylcellulose, 0.22% sodium bicarbonate, 2 mM glutamine, 100 IU/mL penicillin, 100 μg/mL streptomycin, 5% foetal calf serum in MEM-Eagle medium with Earl's salt) and incubated for 3 d in a cell incubator at (37° C., 5% CO2). The cells were then fixated using 4% formaline for 1 h, washed with water, stained with Giemsa for 30 min and then washed and dried. Using a plaque viewer, the virus titre was determined.
(§3) The antiviral action was determined using a patented (DE10235967 and WO2004/015416) and subsequently published activity selectivity assay (G. Kleymann et al. J. Biomol. Screen. 2004; 9, 578) in 96- or 384-well mictrotitre plates using various cell lines of neuronal, lymphoid and epithelial origin, such as, for example, Vero (african green monkey kidney cells), MEF (murine embryonal fibroblasts), HELF (human embryonal fibroblasts), NT2 (human neuronal cell line) or Jurkat (human lymphoid T-cell line). The relevant experimental details of the above mentioned patent and publication to evaluate the antiviral activity of the invention (disclosed compounds) are described below.
(§4) The effect of the substances on the spreading of the cytopathogenic effect was determined in comparision to the reference compound acyclovir-sodium (Zovirax™), a clinically approved anti-herpes chemotherapeutic.
(§5) The compounds (50 mM stock solution dissolved in DMSO) are examined on microtitre plates (for example 96-well flat bottom cell culture plates) at a final concentration of 250 to 0.5 μM or, in case of potent antiviral compounds, 250 to 0.5 nM in 2 to 4 replications (4 to 2 substances per plate). Also examined are toxic and cytostatic effects or precipitation of the compounds. […]

Series [2] relates to HSV-1 ACV resistant. The experiment in a line: activity selectivity assay, HSV-1 ACV resistant. It is filed as cell-based. The procedure:
as §1, §2, §3, §4, §5

The test system of series [3] is HSV-2. The experiment in a line: activity selectivity assay, HSV-2 infected Vero cells. It is filed as cell-based. The procedure: as §1, §2, §3, §4, §5
Series [4] deals with Human Carboanhydrase II (Homo sapiens, UniProt P00918). Description: carbonic anhydrase activity assay (pH indicator method). It is filed as biochemical. Particulars: for carbonic anhydrase inhibition: result in words.
Series [5] in a line: in vivo. Particulars: male, C57BL/6J, mouse, po, 10 mg/kg. More on the design: species or system mice strain C57BL/6J. The procedure:
Pharmcokinetic parameters were determined for Example 7, 7(−), 7(+) and 7c in male mice strain C57BL/6J at an intraveneous (i.v.) dose of 5 mg/kg (5% DMSO in heterologous plasma, 2.5 mL/kg) and an oral dose (p.o) of 10 mg/kg (DMSO/0.5% HPMC (5:95), 5 mL/kg).

One may read the IC50 as the concentration needed to halve the response being measured. A high value points to lower potency. For the compound `Cc1nc(N(C)C(=O)Cc2ccc(-c3cc(F)ccc3F)cc2)sc1[S@@](=N)(=O)C1CC1` (single isomer, unassigned) [Example 7a(−), (−)-N-(5-(Cyclopropanesulfonimidoyl)-4-methylthiazol-2-yl)-2-(2′,5′-difluoro-[1,1′-biphenyl]-4-yl)-N-methylacetamide], the concentration for half-maximal inhibition (IC50) in series [1] (Human alphaherpesvirus 1) was 20 to 50 nM; in series [2] (Human alphaherpesvirus 1), 20 to 50 nM; in series [3] (Human alphaherpesvirus 2), 30 to 300 nM.

For the compound `Cc1nc(N(C)C(=O)Cc2ccc(-c3ccccn3)cc2)sc1[S@@](=N)(=O)C1CC1` (single isomer, unassigned) [Example 7b(−), (−)-N-(5-(Cyclopropanesulfonimidoyl)-4-methylthiazol-2-yl)-N-methyl-2-(4-(pyridin-2-yl)phenyl)acetamide], the IC50 lay in the range of 75 to 250 nM in series [1] (Human alphaherpesvirus 1), 75 to 250 nM in series [2] (Human alphaherpesvirus 1) and 200 to 750 nM in series [3] (Human alphaherpesvirus 2).

Consider `Cc1nc(N(C)C(=O)Cc2ccc(-c3cc(F)ccc3F)cc2)sc1[S@](=N)(=O)C1CC1` (single isomer, unassigned) [Example 7a(+), (+)-N-(5-(Cyclopropanesulfonimidoyl)-4-methylthiazol-2-yl)-2-(2′,5′-difluoro-[1,1′-biphenyl]-4-yl)-N-methylacetamide], for which the concentration for half-maximal inhibition (IC50) in series [1] (Human alphaherpesvirus 1) was 250 to 750 nM; in series [2] (Human alphaherpesvirus 1), 250 to 750 nM; in series [3] (Human alphaherpesvirus 2) it was 500 to 2000 nM.

As for `Nc1nc2c(ncn2COCCO)c(=O)[nH]1` [Acyclovir, reference compound], the half-maximal inhibitory concentration (IC50) is 500 to 3000 nM in series [1], above 25000 nM in series [2] (HSV-1 ACV resistant) and 500 to 3000 nM in series [3].

With `Cc1nc(N(C)C(=O)Cc2ccc(-c3ccccn3)cc2)sc1[S@](C)(=N)=O` (stereo in doubt) [Example 7c, N-Methyl-N-[4-methyl-5-(methylsulfonimidoyl)thiazol-2-yl]-2-[4-(2-pyridyl)phenyl]acetamide], the carbonic anhydrase inhibition result in series [4] is “no or significantly reduced carbonic anhydrase inhibition”.

As for `Cc1nc(N(C)C(=O)Cc2ccc(-c3cc(F)ccc3F)cc2)sc1S(=N)(=O)C1CC1` (stereo not shown) [Example 7a, N-[5-(Cyclopropylsulfonimidoyl)-4-methyl-thiazol-2-yl]-2-[4-(2,5-difluorophenyl)phenyl]-N-methyl-acetamide], the values for the IC50 in series [1] (Human alphaherpesvirus 1), in series [2] (Human alphaherpesvirus 1) and in series [3] (Human alphaherpesvirus 2) were 30 to 100 nM, 30 to 100 nM and 50 to 500 nM, respectively.

A word on the AUC: it is the area under the concentration-time curve, a measure of exposure. Lower therefore signals low exposure. Broadly, the Cmax is the highest concentration seen after dosing. In the case of `Cc1nc(N(C)C(=O)Cc2ccc(-c3ccccn3)cc2)sc1[S@](C)(=N)=O` (racemic) [Example 7c, N-Methyl-N-[4-methyl-5-(methylsulfonimidoyl)thiazol-2-yl]-2-[4-(2-pyridyl)phenyl]acetamide], the half-maximal inhibitory concentration (IC50) in series [1] (Human alphaherpesvirus 1) is 150 to 600 nM; in series [4] it was above 10 µM; in series [2] (Human alphaherpesvirus 1), 150 to 600 nM; in series [3] (Human alphaherpesvirus 2), 200 to 1500 nM. The compound also yielded an AUC in series [5] of 22500 ng·h/mL. Besides, the Cmax in series [5] amounted to 4290 ng/mL.

For the compound `CN(C(=O)Cc1ccc(-c2cc(F)ccc2F)cc1)c1nc(CO)c([S@](C)(=N)=O)s1` (single isomer, unassigned) [Example 10b, 2-(2′,5′-Difluoro-[1,1′-biphenyl]-4-yl)-N-(4-(hydroxymethyl)-5-(S-methylsulfonimidoyl)thiazol-2-yl)-N-methylacetamide], the IC50 in series [1] (Human alphaherpesvirus 1) was 1000 to 5000 nM; in series [2] (Human alphaherpesvirus 1), 1000 to 5000 nM; in series [3] (Human alphaherpesvirus 2) it was 5000 to 25000 nM.

As for `Cc1nc(N(C)C(=O)Cc2ccc(-c3ccccn3)cc2)sc1[S@@](C)(=N)=O` (single isomer, unassigned) [Example 7c(−), (−)-N-Methyl-N-(4-methyl-5-(S-methylsulfonimidoyl)thiazol-2-yl)-2-(4-(pyridin-2-yl)phenyl)acetamide], the half-inhibitory concentration (IC50) in series [1] (Human alphaherpesvirus 1) was 75 to 300 nM; in series [4], above 10 µM; in series [2] (Human alphaherpesvirus 1), 75 to 300 nM; in series [3] (Human alphaherpesvirus 2), 100 to 750 nM. Further, in series [4], the carbonic anhydrase inhibition result was “no or significantly reduced carbonic anhydrase inhibition”. This compound returned an area under the curve (AUC) in series [5] of 38000 ng·h/mL. This compound registered a peak concentration (Cmax) in series [5] of 6650 ng/mL.

For the compound `Cc1nc(N(C)C(=O)Cc2ccc(-c3ccccn3)cc2)sc1[S@](=N)(=O)C1CC1` (single isomer, unassigned) [Example 7b(+), (+)-N-(5-(Cyclopropanesulfonimidoyl)-4-methylthiazol-2-yl)-N-methyl-2-(4-(pyridin-2-yl)phenyl)acetamide], the concentration for half-maximal inhibition (IC50) in series [1] (Human alphaherpesvirus 1) lay within 500 to 1500 nM; in series [2] (Human alphaherpesvirus 1) it was 500 to 1500 nM; in series [3] (Human alphaherpesvirus 2), 2000 to 8000 nM.

Take `CC(=O)N=[S@](C)(=O)c1sc(N(C)C(=O)Cc2ccc(-c3cc(F)ccc3F)cc2)nc1C` [Example 8, (R)-N-(5-(N-Acetyl-S-methylsulfonimidoyl)-4-methylthiazol-2-yl)-2-(2′,5′-difluoro-[1,1′-biphenyl]-4-yl)-N-methylacetamide]: the half-maximal inhibitory concentration (IC50) in series [1] (Human alphaherpesvirus 1) fell in the range of 10000 to 50000 nM; in series [2] (Human alphaherpesvirus 1), 10000 to 50000 nM; in series [3] (Human alphaherpesvirus 2), 50000 to 250000 nM.

Regarding `CN(C(=O)Cc1ccc(-c2cc(F)ccc2F)cc1)c1nc(CO)c([S@@](C)(=N)=O)s1` (single isomer, unassigned) [Example 10a, 2-(2′,5′-Difluoro-[1,1′-biphenyl]-4-yl)-N-(4-(hydroxymethyl)-5-(S-methylsulfonimidoyl)thiazol-2-yl)-N-methylacetamide], the half-inhibitory concentration (IC50) in series [1] (Human alphaherpesvirus 1) fell in the range of 50 to 250 nM; in series [2] (Human alphaherpesvirus 1), 50 to 250 nM; in series [3] (Human alphaherpesvirus 2) it was 1000 to 5000 nM.

As to `Cc1nc(N(C)C(=O)Cc2ccc(-c3cc(F)ccc3F)cc2)sc1[S@](C)(=N)=O` [Example 7(+), (+)-(R)-2-(2′,5′-Difluoro-[1,1′-biphenyl]-4-yl)-N-methyl-N-(4-methyl-5-(S-methylsulfonimidoyl)thiazol-2-yl)acetamide], the 50% inhibitory concentration (IC50) in series [1] (Human alphaherpesvirus 1) was 30 to 200 nM; in series [4], above 10 µM; in series [2] (Human alphaherpesvirus 1), 30 to 200 nM; in series [3] (Human alphaherpesvirus 2), 30 to 200 nM. Further, in series [4], the carbonic anhydrase inhibition entry is on record as “no or significantly reduced carbonic anhydrase inhibition”.

Consider `Cc1nc(N(C)C(=O)Cc2ccc(-c3ccccn3)cc2)sc1[S@](C)(=N)=O` (single isomer, unassigned) [Example 7c(+), (+)-N-Methyl-N-(4-methyl-5-(S-methylsulfonimidoyl)thiazol-2-yl)-2-(4-(pyridin-2-yl)phenyl)acetamide], for which the concentration for half-maximal inhibition (IC50) is 300 to 750 nM in series [1] (Human alphaherpesvirus 1), above 10 µM in series [4], 300 to 750 nM in series [2] (Human alphaherpesvirus 1) and 500 to 1500 nM in series [3] (Human alphaherpesvirus 2). Further, the carbonic anhydrase inhibition entry in series [4] was “no or significantly reduced carbonic anhydrase inhibition”. For the same compound, in series [5], the AUC is 31200 ng·h/mL. The highest concentration (Cmax) in series [5] was determined as 5700 ng/mL.

In the case of `Cc1nc(N(C)C(=O)Cc2ccc(-c3ccccn3)cc2)sc1S(=N)(=O)C1CC1` (racemic) [Example 7b, N-[5-(Cyclopropylsulfonimidoyl)-4-methyl-thiazol-2-yl]-N-methyl-2-[4-(2-pyridyl)phenyl]acetamide], the IC50 was 100 to 400 nM in series [1] (Human alphaherpesvirus 1), above 10 µM in series [4], 100 to 400 nM in series [2] (Human alphaherpesvirus 1) and 250 to 1000 nM in series [3] (Human alphaherpesvirus 2). The carbonic anhydrase inhibition entry in series [4] is reported as “no or significantly reduced carbonic anhydrase inhibition”.

The values are drawn from patent publication US11278534B2, “Enantiomers of substituted thiazoles as antiviral compounds” (Innovative Molecules GmbH, priority 2017, dated 2022).
